What was measured:
Test in all cases: relative viability (nuclei count vs DMSO), 5 days (fraction); higher = more cells survive
Carfilzomib + Trametinib = compound: CC(C)C[C@H](NC(=O)[C@H](CCc1ccccc1)NC(=O)CN1CCOCC1)C(=O)N[C@@H](Cc1ccccc1)C(=O)N[C@@H](CC(C)C)C(=O)[C@@]1(C)CO1 [Carfilzomib] + CC(=O)Nc1cccc(-n2c(=O)n(C3CC3)c(=O)c3c(Nc4ccc(I)cc4F)n(C)c(=O)c(C)c32)c1 [Trametinib] (partner 0.02 µM)
Procedure, shortened: (§1)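 One day after seeding in 1536-well plates, lung cancer cell lines were dosed by pin tool. Dosing was either single-drug or a fixed anchor-drug dose plus five library-drug doses (not always all listed) in √10 steps. After 5 days, nuclei were stained in one fix-and-stain step and counted on 4× images, and relative viability is the nuclei count of treated wells over that of vehicle wells, given as the median of duplicate plates.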

Carfilzomib + OSI-027 = compound: CC(C)C[C@H](NC(=O)[C@H](CCc1ccccc1)NC(=O)CN1CCOCC1)C(=O)N[C@@H](Cc1ccccc1)C(=O)N[C@@H](CC(C)C)C(=O)[C@@]1(C)CO1 [Carfilzomib] + COc1cccc2cc(-c3nc([C@H]4CC[C@H](C(=O)O)CC4)n4ncnc(N)c34)[nH]c12 [OSI-027] (partner 0.5 µM)
Procedure, shortened: as §1

Carfilzomib + Lapatinib = compound: CC(C)C[C@H](NC(=O)[C@H](CCc1ccccc1)NC(=O)CN1CCOCC1)C(=O)N[C@@H](Cc1ccccc1)C(=O)N[C@@H](CC(C)C)C(=O)[C@@]1(C)CO1 [Carfilzomib] + CS(=O)(=O)CCNCc1ccc(-c2ccc3ncnc(Nc4ccc(OCc5cccc(F)c5)c(Cl)c4)c3c2)o1 [Lapatinib] (partner 2 µM)
Procedure, shortened: as §1

Carfilzomib + Linsitinib = compound: CC(C)C[C@H](NC(=O)[C@H](CCc1ccccc1)NC(=O)CN1CCOCC1)C(=O)N[C@@H](Cc1ccccc1)C(=O)N[C@@H](CC(C)C)C(=O)[C@@]1(C)CO1 [Carfilzomib] + C[C@]1(O)C[C@@H](c2nc(-c3ccc4ccc(-c5ccccc5)nc4c3)c3c(N)nccn32)C1 [Linsitinib] (partner 1 µM)
Procedure, shortened: as §1

Cell Line: NCI-H1793
- relative viability (Carfilzomib + Trametinib; first compound 0.001 µM): 0.38
- relative viability (Carfilzomib + Trametinib; first compound 0.003162 µM): 0.497
- relative viability (Carfilzomib + Trametinib; first compound 0.01 µM): 0.46
- relative viability (Carfilzomib + Trametinib; first compound 0.03162 µM): 0.472
- relative viability (Carfilzomib + Trametinib; first compound 0.1 µM): 0.35
- relative viability (Carfilzomib + OSI-027; first compound 0.003162 µM): 0.323
- relative viability (Carfilzomib + OSI-027; first compound 0.01 µM): 0.369
- relative viability (Carfilzomib + OSI-027; first compound 0.03162 µM): 0.269
- relative viability (Carfilzomib + OSI-027; first compound 0.1 µM): 0.133
- relative viability (Carfilzomib + Lapatinib; first compound 0.003162 µM): 0.772
- relative viability (Carfilzomib + Lapatinib; first compound 0.01 µM): 0.476
- relative viability (Carfilzomib + Lapatinib; first compound 0.03162 µM): 0.424
- relative viability (Carfilzomib + Lapatinib; first compound 0.1 µM): 0.114
- relative viability (Carfilzomib + Linsitinib; first compound 0.003162 µM): 0.737
- relative viability (Carfilzomib + Linsitinib; first compound 0.01 µM): 0.761
- relative viability (Carfilzomib + Linsitinib; first compound 0.03162 µM): 0.939
- relative viability (Carfilzomib + Linsitinib; first compound 0.1 µM): 0.585
